# Assay results as given in patent publication EP0969089A1, “Phytase formulation” (F. HOFFMANN-LA ROCHE AG, priority 1998, dated 2000).
# Where two headings read alike, the source gives them in different places.
# How the values were obtained:
# consensus phytase = experiment: Effect of stabilizing additives on thermostability of consensus phytase; format: biochemical; settings: for increase of thermostability: 25% dicarboxylate
# Procedure: (§1) After incubation of the sample for 15 mm at the desired temperature (e.g. at 60 or 65 °C for the screening of additive effects), the reaction was stopped by addition of 0.5 ml 15% trichloroacetic acid. Determination of liberated inorganic phosphate was performed by standard methods.
# Disodium malonate, succinate and glutarate were dissolved at concentrations of 5, 10 and 25% and phytase activity was measured after preincubation of enzyme plus additive and substrate (see above) at the following temperatures: 37, 45, 50, 55, 60, 65, 70, 75, 80, and 85 °C. […] It should be noted that the concentration of the additives was reduced by half after substrate addition.
# A. fumigatus phytase = molecular target: T1, A. fumigatus phytase (Aspergillus fumigatus, UniProt O00092); format: biochemical; settings: for effect on the thermostabilization of A. fumigatus phytase: polyols with more than 6 or less than 5 carbon atoms, 65 °C; for temperature at which considerable activity still being detected: dicarboxylate at 25% (12.5% final concentration in the activity assay); for increase in phytase activity measured at 37 °C: dicarboxylates; for effects on the thermostability of the protein: sodium acetate 5, 10 and 25%
# T1 construct: made in house; host or cells: Hansenula polymorpha
# T1 sequence (O00092 27-465): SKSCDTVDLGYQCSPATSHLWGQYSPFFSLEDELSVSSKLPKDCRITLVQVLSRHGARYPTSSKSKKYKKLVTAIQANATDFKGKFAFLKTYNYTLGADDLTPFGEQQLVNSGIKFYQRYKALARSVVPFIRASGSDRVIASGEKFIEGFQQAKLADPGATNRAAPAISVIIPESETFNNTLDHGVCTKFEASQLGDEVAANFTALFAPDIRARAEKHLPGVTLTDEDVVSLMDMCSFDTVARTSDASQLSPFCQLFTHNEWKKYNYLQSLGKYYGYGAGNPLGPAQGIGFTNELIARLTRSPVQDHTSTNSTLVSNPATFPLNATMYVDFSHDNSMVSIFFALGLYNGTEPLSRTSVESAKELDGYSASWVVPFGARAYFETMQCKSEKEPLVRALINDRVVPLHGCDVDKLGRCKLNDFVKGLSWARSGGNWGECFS
# Procedure: as §1
# (§2) Disodium malonate, succinate and glutarate were dissolved at concentrations of 5, 10 and 25% and phytase activity was measured after preincubation of enzyme plus additive and substrate (see above) at the following temperatures: 37, 45, 50, 55, 60, 65, 70, 75, 80, and 85 °C. In the same way, the temperature dependence of the activity of different phytases in the presence of 25% xylitol and ribitol was tested. It should be noted that the concentration of the additives was reduced by half after substrate addition.
# [1] = Solubility of polyols in assay buffer; settings: at a concentration of 50% (w/w)
# Procedure: PEGs have been dissolved at a concentration of 50% with the exception of PEGs with a molecular weight of 4000, 8000 and 10000 which were used at a concentration of 25%. For the screening of PEGs and other polyols, the preincubation and reaction temperature was chosen as 60 °C for A. nidulans and A. terreus CBS phytase, 65 °C for A. fumigatus and A. niger phytase and 75 °C for consensus phytase.
# A. niger phytase = molecular target: T2, A. niger phytase (Aspergillus niger, UniProt P34752); experiment: Effect of stabilizing additives on thermostability of A. niger phytase; format: biochemical; settings: 25% dicarboxylate
# T2 construct: made in house; host or cells: Aspergillus niger
# T2 sequence (P34752 24-467): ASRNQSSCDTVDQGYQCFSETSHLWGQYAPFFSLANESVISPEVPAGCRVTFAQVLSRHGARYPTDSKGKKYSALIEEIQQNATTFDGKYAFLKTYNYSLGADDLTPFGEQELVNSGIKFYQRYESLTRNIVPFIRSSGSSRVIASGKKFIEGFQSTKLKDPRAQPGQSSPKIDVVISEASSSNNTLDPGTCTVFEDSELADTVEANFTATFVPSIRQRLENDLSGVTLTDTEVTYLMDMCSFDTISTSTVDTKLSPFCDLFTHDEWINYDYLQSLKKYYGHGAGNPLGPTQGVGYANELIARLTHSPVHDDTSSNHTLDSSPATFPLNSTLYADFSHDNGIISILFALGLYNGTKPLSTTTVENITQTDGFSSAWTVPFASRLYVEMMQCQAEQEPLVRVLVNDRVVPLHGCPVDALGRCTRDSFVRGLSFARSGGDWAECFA
# Procedure: as §1, §2
# A. terreus CBS phytase = molecular target: T3, A. terreus CBS phytase (Aspergillus terreus, UniProt O00100); experiment: Effect of stabilizing additives on thermostability of A. terreus CBS phytase; format: biochemical; settings: 25% dicarboxylate
# T3 construct: made in house; host or cells: Hansenula polymorpha
# T3 sequence (O00100 20-466): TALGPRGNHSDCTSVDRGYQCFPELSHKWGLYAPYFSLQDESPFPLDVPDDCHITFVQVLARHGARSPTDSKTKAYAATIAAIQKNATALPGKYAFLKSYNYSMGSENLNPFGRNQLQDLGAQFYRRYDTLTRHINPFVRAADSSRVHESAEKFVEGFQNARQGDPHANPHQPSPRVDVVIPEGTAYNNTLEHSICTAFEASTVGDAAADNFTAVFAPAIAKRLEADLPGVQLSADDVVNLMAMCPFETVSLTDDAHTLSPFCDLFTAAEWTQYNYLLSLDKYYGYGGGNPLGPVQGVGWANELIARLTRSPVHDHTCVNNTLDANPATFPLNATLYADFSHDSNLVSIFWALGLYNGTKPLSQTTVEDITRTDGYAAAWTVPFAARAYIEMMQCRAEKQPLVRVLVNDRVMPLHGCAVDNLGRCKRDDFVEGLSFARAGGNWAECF
# Procedure: as §1, §2
# A. nidulans phytase = molecular target: T4, A. nidulans phytase (Emericella nidulans, UniProt O00093); experiment: Effect of stabilizing additives on thermostability of A. nidulans phytase; format: biochemical, Aspergillus nidulans; settings: 25% dicarboxylate
# T4 construct: made in house; host or cells: Aspergillus niger
# T4 sequence (O00093 20-463): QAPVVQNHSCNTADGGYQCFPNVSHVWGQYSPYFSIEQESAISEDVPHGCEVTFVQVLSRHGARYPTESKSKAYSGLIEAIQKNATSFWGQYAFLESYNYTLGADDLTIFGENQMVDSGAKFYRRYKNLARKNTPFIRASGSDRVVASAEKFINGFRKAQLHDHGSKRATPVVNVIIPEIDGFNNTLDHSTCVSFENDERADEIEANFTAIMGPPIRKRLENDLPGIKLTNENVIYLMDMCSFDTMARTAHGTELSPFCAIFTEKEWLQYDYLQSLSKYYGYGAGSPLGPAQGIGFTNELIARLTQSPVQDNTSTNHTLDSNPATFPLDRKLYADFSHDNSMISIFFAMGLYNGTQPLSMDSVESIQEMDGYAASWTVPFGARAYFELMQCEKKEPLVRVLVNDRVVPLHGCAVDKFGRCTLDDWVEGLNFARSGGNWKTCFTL
# Procedure: as §1, §2
# [2] = in the presence of 50% solutions of polyol
# [3] = polyol at a concentration of 12.5%
# [4] = polyol at a concentration of 25%
smiles,measurement,setting,value
OC[C@@H](O)[C@H](O)[C@@H](O)CO [xylitol],increase of temperature optimum,consensus phytase; xylitol 50%,10-15 °C
same,specific activities measured at 65 °C,A. fumigatus phytase; in the presence of 25% polyol,21 U*(mg protein)^-1
same,specific activities measured at 65 °C,A. fumigatus phytase; [2],90 U*(mg protein)^-1
same,specific activity measured at 65 °C,A. fumigatus phytase; [3],11-12 U/mg
same,specific activity measured at 65 °C,A. fumigatus phytase; [4],51-90 U/mg
OC[C@@H](O)[C@@H](O)CO [erythritol],"solubility in 0.2 M sodium acetate, pH 5.0",[1],not soluble
same,effect on the thermostabilization of A. fumigatus phytase,A. fumigatus phytase,inferior effect
O=C(CO)[C@@H](O)[C@@H](O)[C@H](O)[C@H](O)CO [mannoheptulose],"solubility in 0.2 M sodium acetate, pH 5.0",[1],not soluble
same,effect on the thermostabilization of A. fumigatus phytase,A. fumigatus phytase,inferior effect
"O=C(O)CCC(=O)O [succinate, disodium succinate]",increase of thermostability,A. niger phytase,5-15 °C
same,increase of thermostability,consensus phytase,5-15 °C
same,increase of thermostability,A. terreus CBS phytase,5-15 °C
same,increase of thermostability,A. nidulans phytase,5-15 °C
same,temperature at which considerable activity still being detected,A. fumigatus phytase,65 °C
same,increase in phytase activity measured at 37 °C,A. fumigatus phytase,2 fold
"O=C(O)CC(=O)O [malonate, disodium malonate]",increase of thermostability,A. niger phytase,5-15 °C
same,increase of thermostability,consensus phytase,5-15 °C
same,increase of thermostability,A. terreus CBS phytase,5-15 °C
same,increase of thermostability,A. nidulans phytase,5-15 °C
same,temperature at which considerable activity still being detected,A. fumigatus phytase,70 °C
same,increase in phytase activity measured at 37 °C,A. fumigatus phytase,approximately 4 fold
OCC(O)CO [glycerol],effect on the thermostabilization of A. fumigatus phytase,A. fumigatus phytase,inferior effect
OC[C@@H](O)[C@@H](O)[C@@H](O)CO [ribitol],specific activities measured at 65 °C,A. fumigatus phytase; in the presence of 25% polyol,11 U*(mg protein)^-1
same,specific activities measured at 65 °C,A. fumigatus phytase; [2],51 U*(mg protein)^-1
same,specific activity measured at 65 °C,A. fumigatus phytase; [3],11-12 U/mg
same,specific activity measured at 65 °C,A. fumigatus phytase; [4],51-90 U/mg
OC[C@@H](O)[C@@H](O)[C@H](O)[C@@H](O)CO [sorbitol],specific activities measured at 65 °C,A. fumigatus phytase; in the presence of 25% polyol,11 U*(mg protein)^-1
same,specific activities measured at 65 °C,A. fumigatus phytase; [2],74 U*(mg protein)^-1
CC(=O)O [sodium acetate],effects on the thermostability of the protein,A. fumigatus phytase,only minor effects
same,effects on the thermostability of the protein,A. fumigatus phytase; listed as Sodium acetate,no effect
O=C[C@@H](O)[C@@H](O)[C@H](O)[C@H](O)[C@H](O)CO [mannoheptose],"solubility in 0.2 M sodium acetate, pH 5.0",[1],not soluble
same,effect on the thermostabilization of A. fumigatus phytase,A. fumigatus phytase,inferior effect
